Experimental data taken from patent US9371265B2, “Compositions and methods related to inhibitors of JAK kinase” (EP PHARMA, INC., priority 2012, dated 2016).

What was measured:
[1] = biological target: T1, immunopurified JAK3 (Homo sapiens, UniProt P52333); test: In vitro JAK3 autokinase assay; assay type: biochemical; settings: 1 μM ATP, densitometry analysis
T1 construct: immunopurified JAK3 from YT cells resuspended in kinase buffer; endogenous in cells; host or cells: YT cells (immunoprecipitate)
T1 sequence (P52333 whole entry): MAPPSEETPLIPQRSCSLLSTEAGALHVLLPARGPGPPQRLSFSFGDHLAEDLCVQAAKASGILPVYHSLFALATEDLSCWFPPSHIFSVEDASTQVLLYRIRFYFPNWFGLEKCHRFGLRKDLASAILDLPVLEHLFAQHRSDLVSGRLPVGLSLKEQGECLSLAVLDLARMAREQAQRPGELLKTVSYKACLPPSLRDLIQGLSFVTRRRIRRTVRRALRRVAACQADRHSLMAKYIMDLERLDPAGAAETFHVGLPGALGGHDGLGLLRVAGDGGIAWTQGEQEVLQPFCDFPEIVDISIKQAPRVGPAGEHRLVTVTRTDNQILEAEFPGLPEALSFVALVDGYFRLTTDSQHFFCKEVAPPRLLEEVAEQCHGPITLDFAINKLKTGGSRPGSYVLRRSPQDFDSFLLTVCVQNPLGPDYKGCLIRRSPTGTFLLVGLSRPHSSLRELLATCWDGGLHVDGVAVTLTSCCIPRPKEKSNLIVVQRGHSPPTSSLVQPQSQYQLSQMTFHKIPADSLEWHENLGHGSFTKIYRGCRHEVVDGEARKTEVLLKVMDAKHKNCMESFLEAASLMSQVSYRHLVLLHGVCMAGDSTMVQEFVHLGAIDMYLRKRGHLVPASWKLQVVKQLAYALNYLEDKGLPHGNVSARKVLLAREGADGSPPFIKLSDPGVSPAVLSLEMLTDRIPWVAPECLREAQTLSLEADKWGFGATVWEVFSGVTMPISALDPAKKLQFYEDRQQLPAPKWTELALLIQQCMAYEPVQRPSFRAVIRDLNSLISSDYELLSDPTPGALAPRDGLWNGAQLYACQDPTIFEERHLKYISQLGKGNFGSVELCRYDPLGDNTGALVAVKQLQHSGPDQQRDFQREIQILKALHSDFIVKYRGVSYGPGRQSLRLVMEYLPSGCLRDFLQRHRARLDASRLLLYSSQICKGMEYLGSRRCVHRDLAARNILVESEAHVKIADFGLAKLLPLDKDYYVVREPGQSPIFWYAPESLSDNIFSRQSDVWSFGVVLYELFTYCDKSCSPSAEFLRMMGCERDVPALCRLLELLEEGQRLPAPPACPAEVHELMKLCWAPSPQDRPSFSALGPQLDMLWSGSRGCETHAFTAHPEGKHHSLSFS

[2] = system: CREB; test: Phospho-CREB in SU-DHL-1 cells (Luminex multiplex); assay type: cell-based, human; settings: 24 hours
Method: FIGS. 8A-8F. Effect of EP009 on ALCL cells is mediated through selective activation of ERK1/2 and JNK1/2 stress signaling pathways, and inhibition of p70 S6 kinase growth signaling pathways. SU-DHL-1 cells were treated with vehicle (PBS) or increasing amounts of EP009 (0-50 μM) for 24 hours. Cells were then lysed, clarified, and subjected to Luminex multiplex analysis to detect phosphorylated (A) ERK1/2, (B) JNK1/2, (C) p70 S6 kinase, (D) IκBα, (E) CREB, and (F) p38. Values represent mean fluorescence intensity (MFI) normalized to corresponding GAPDH MFI, while error bars represent the standard deviation (n=2). Representative data from two independent experiments are shown. Statistical significance was determined using Student's t-test. (*, p<0.05).
The MILLIPLEX MAP 8-plex Multi-Pathway Signaling Phosphoprotein kit (Millipore) was used to detect phosphorylated ERK1/2 (Thr185/Tyr187), STAT3 (Ser727), JNK1/2 (Thr183/Tyr185), p70 S6 kinase (Thr412), IκBα (Ser32), STAT5A/B (Tyr694/699), CREB (Ser133), and p38 (Thr180/Tyr182). The MILLIPLEX MAP 5-plex STAT Phosphoprotein kit (Millipore) was used to detect phosphorylated STAT1 (Tyr701), STAT2 (Tyr690), STAT3 (Tyr705), STAT5A/B (Tyr694/699), and STAT6 (Tyr641). The MILLIPLEX MAP Human Apoptosis 3-plex kit (Millipore) was used to detect cleaved PARP, cleaved Caspase 3, and total GAPDH for protein normalization.

[3] = biological target: ABL1(T315I)-phosphorylated (Homo sapiens, UniProt P00519, T315I); test: Kinase panel: ABL1(T315I)-phosphorylated; assay type: biochemical; settings: 10 μM EP009
Method: (§1) Achieving JAK3 selectivity remains a significant challenge in the development of new small molecules for the treatment of cancer and immune-derived diseases. As such, the inventors employed cell-based screening assays of small-molecule libraries based upon the chemical scaffold of the established JAK3 inhibitor NC1153 (Stepkowski et al., J Immunol. (2005), 175(7):4236-4246) EP009 (FIG. 2A) was selected as a lead compound due to improved intrinsic stability (>95% purity in various solvents at 37° C. for 24 hours; FIG. 3) and high-degree of JAK3 selectivity. To test JAK3 versus JAK2 specificity of EP009, the IL-2/JAK3-dependent Kit225, and IL-3/JAK2-dependent BaF/3 cell lines were used. Kit225 and BaF/3 cells growing in the presence of IL-2 or IL-3, respectively, were treated with ascending concentrations of EP009 for 12 hours and cellular JAK3 and JAK2 tyrosine phosphorylation levels detected by Western blot analysis (FIGS. 2B and 2C). Following densitometric analysis, EP009 was determined to dose-dependently reduce IL-2-mediated JAK3 tyrosine phosphorylation with a cellular 50% inhibitory concentration (IC50) between 10 and 20 μM (FIG. 2B). […] To globally evaluate specificity, the inhibitory activity of EP009 was measured against a panel of protein kinases distributed throughout the kinome using the scanEDGE profiling service (KINOMEscan). […]

[4] = biological target: CDK3 (Homo sapiens, UniProt Q00526); test: Kinase panel: CDK3; assay type: biochemical; settings: 10 μM EP009
Chain of CDK3 (Q00526 whole entry): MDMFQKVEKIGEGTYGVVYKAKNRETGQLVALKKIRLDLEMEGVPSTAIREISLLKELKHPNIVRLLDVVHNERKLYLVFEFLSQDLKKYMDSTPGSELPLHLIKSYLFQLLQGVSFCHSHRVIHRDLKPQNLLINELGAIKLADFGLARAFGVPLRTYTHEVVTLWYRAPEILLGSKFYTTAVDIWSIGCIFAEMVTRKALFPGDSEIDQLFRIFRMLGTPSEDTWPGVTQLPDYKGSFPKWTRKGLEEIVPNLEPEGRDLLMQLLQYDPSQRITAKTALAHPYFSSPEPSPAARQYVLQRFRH
Method: as §1

[5] = biological target: CHEK1 (Homo sapiens, UniProt O14757); test: Kinase panel: CHEK1; assay type: biochemical; settings: 10 μM EP009
Chain of CHEK1 (O14757 whole entry): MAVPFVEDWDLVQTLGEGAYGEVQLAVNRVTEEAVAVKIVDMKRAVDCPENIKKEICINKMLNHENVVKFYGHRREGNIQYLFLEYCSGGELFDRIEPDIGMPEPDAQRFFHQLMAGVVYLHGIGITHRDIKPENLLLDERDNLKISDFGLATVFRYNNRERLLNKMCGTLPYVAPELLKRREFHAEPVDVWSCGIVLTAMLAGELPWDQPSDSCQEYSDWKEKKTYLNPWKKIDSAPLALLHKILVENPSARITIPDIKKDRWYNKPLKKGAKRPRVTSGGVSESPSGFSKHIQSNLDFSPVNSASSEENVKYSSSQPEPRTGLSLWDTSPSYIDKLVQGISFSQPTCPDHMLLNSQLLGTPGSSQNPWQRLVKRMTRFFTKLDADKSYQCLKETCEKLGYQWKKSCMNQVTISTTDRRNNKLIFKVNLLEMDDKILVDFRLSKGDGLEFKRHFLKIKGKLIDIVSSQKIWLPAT
Method: as §1

[6] = biological target: DCAMKL1 (Homo sapiens, UniProt O15075); test: Kinase panel: DCAMKL1; assay type: biochemical; settings: 10 μM EP009
Chain of DCAMKL1 (O15075 whole entry): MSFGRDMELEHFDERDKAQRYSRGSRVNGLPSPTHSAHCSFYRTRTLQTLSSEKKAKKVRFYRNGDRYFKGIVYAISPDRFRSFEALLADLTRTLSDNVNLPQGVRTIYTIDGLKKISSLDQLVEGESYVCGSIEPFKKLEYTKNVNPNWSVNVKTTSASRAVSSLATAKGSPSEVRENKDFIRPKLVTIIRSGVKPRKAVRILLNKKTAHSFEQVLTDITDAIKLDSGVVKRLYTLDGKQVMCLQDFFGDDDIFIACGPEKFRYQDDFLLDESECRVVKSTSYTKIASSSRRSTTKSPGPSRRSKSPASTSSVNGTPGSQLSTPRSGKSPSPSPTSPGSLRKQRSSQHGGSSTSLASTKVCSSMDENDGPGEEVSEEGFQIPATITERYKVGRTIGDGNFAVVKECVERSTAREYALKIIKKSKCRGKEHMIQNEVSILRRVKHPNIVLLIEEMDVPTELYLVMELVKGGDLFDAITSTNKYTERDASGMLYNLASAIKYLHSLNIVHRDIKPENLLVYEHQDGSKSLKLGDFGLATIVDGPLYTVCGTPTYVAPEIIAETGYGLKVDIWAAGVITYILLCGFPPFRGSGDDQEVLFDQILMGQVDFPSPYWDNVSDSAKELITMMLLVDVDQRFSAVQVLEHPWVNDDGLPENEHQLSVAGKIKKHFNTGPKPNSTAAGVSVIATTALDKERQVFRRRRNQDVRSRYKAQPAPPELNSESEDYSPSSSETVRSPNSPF
Method: as §1

[7] = biological target: EGFR(L858R) (Homo sapiens, UniProt P00533, L858R); test: Kinase panel: EGFR(L858R); assay type: biochemical; settings: 10 μM EP009
Method: as §1

[8] = biological target: FGFR2 (Homo sapiens, UniProt P21802); test: Kinase panel: FGFR2; assay type: biochemical; settings: 10 μM EP009
Method: as §1

[9] = biological target: MKNK1 (Homo sapiens, UniProt Q9BUB5); test: Kinase panel: MKNK1; assay type: biochemical; settings: 10 μM EP009
Chain of MKNK1 (Q9BUB5 whole entry): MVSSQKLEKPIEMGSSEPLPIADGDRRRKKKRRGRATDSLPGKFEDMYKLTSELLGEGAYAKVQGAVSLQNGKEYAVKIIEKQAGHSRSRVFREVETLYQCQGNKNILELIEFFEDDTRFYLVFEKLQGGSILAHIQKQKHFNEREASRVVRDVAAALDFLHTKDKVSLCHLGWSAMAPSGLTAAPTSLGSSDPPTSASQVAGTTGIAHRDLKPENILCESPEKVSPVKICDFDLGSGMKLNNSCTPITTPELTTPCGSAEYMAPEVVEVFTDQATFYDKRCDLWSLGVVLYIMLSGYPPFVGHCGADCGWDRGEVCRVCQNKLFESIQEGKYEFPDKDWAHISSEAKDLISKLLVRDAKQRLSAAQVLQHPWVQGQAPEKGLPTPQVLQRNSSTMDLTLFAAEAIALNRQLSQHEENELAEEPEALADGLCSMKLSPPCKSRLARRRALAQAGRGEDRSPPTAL
Method: as §1

[10] = biological target: SNARK (Homo sapiens, UniProt Q9H093); test: Kinase panel: SNARK; assay type: biochemical; settings: 10 μM EP009
Method: as §1

[11] = biological target: SRC (Homo sapiens, UniProt P12931); test: Kinase panel: SRC; assay type: biochemical; settings: 10 μM EP009
Chain of SRC (P12931 whole entry): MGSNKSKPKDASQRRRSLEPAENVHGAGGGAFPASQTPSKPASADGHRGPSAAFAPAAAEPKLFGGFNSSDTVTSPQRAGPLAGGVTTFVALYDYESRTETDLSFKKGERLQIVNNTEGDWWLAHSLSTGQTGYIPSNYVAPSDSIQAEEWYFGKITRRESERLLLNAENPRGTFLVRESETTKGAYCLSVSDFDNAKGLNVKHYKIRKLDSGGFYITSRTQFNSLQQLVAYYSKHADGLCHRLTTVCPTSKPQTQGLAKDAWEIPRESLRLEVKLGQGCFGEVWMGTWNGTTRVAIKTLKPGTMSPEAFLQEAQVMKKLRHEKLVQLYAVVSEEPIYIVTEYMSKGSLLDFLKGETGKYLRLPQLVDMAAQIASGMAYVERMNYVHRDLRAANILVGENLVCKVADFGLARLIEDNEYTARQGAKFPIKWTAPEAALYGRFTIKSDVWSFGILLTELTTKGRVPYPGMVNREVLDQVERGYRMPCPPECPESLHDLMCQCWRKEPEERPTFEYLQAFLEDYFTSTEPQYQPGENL
Method: as §1

[12] = biological target: TRKA (Homo sapiens, UniProt P04629); test: Kinase panel: TRKA; assay type: biochemical; settings: 10 μM EP009
Chain of TRKA (P04629 33-796): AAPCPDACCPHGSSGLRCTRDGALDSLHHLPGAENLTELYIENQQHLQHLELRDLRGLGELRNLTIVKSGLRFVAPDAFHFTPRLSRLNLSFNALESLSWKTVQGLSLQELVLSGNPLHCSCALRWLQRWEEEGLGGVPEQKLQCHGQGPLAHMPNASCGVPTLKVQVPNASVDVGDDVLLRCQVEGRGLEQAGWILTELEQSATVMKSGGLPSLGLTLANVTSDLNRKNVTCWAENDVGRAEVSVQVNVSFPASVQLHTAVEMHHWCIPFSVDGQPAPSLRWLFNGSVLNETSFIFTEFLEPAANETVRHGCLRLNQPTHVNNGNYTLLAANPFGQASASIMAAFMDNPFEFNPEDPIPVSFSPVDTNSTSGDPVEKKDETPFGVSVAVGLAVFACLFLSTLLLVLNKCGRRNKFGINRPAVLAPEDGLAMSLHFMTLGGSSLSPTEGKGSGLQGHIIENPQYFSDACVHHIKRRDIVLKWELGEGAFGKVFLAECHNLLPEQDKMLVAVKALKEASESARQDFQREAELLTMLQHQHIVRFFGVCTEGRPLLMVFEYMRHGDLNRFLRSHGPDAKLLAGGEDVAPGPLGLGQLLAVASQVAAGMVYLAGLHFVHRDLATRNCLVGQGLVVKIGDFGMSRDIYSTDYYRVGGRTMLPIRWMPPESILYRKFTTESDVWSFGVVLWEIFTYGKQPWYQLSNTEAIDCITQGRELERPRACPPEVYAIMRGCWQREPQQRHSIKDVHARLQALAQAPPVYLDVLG
Method: as §1

[13] = biological target: TSSK1B (Homo sapiens, UniProt Q9BXA7); test: Kinase panel: TSSK1B; assay type: biochemical; settings: 10 μM EP009
Chain of TSSK1B (Q9BXA7 whole entry): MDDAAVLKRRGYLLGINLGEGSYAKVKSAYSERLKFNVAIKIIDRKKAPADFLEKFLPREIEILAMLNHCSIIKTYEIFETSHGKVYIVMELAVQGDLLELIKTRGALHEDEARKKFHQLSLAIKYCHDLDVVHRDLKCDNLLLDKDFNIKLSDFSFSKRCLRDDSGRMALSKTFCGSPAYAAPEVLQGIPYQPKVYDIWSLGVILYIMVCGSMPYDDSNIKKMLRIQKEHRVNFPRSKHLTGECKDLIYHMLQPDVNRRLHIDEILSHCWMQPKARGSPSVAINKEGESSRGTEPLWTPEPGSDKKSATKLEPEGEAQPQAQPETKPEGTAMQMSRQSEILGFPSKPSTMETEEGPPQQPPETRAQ
Method: as §1

Compound: C=C1CCCCCCCCCC(CO)C1=O (stereo not shown) [EP009, 2-(Hydroxymethyl)-12-methylenecyclododecanone]
- IC50 [1]: 1000 to 2500 nM
- CREB phosphorylation status [2]: No statistically significant change
- Kinase Activity (% of Control) [3]: 100 % of Control
- Kinase Activity (% of Control) [4]: 100 % of Control
- Kinase Activity (% of Control) [5]: 100 % of Control
- Kinase Activity (% of Control) [6]: 100 % of Control
- Kinase Activity (% of Control) [7]: 100 % of Control
- Kinase Activity (% of Control) [8]: 100 % of Control
- Kinase Activity (% of Control) [9]: 100 % of Control
- Kinase Activity (% of Control) [10]: 82 % of Control
- Kinase Activity (% of Control) [11]: 100 % of Control
- Kinase Activity (% of Control) [12]: 65 % of Control
- Kinase Activity (% of Control) [13]: 98 % of Control
